Experimental data from patent US8778897B2, “Method of treatment using α-1-adrenergic agonist compounds” (The Regents of the University of California, priority 2008, dated 2014).

Columns and labels:
[1] = Dose finding study, daily tail cuff blood pressure in mice; assay type: in vivo
Description: (§1) The alpha-1-adrenergic receptor agonist, A61603, was administered to 11 week-old wild type male C57BI6J mice using an osmotic minipump. Cardiomyopathy was induced with a single dose of doxorubicin (25 mg/kg) administered intraperitoneally. Blood pressure was measured by tail cuff, activated (phosphorylated) P-ERK by immunoblot, heart mRNA by RT-qPCR, fractional shortening (FS) by echocardiography (ECHO), myocyte necrosis by serum creatine kinase (CK), apoptosis by TUNEL stain, and fibrosis by Sirius red stain.
In a dose finding study, (0.01-100 μg/kg/day),
A61603 at 10 ng/kg/day over 7 days had no effect on daily tail cuff blood pressure, as evidenced by the average blood pressure of the control, vehicle treated mice of 115±4 mmHg and the average blood pressure of the mice treated with A61603 of 119±4 mmHg.

[2] = system: wild type male C57BI6J mice; assay: Doxorubicin-induced cardiomyopathy in wild type mice; assay type: in vivo; conditions: single doxorubicin 25 mg/kg i.p., A61603 10 ng/kg/day or vehicle infused over 7 days; for Fibrosis area (%): Sirius red; for Fibrosis area (%) / TUNEL-positive / ECHO FS (%) / Serum CK (U/L): mean ± SE; for TUNEL-positive: apoptosis; for Survival 7 days (%): untreated 100
Description: as §1
A61603 at the non-hypertensive dose of 10 ng/kg/day or vehicle was infused over 7 days after a single injection of doxorubicin.

[3] = system: alpha-1A adrenergic receptor; assay: Doxorubicin-induced cardiomyopathy in alpha-1A-subtype knock-out mice; assay type: in vivo
[4] = target: T1, α1A receptor (Mus musculus, UniProt P97718); conditions: wild-type mice, infusion; cited from earlier work
T1 construct: host or cells: wild-type mice (whole animal, endogenous receptor)
T1 sequence (P97718 1-466): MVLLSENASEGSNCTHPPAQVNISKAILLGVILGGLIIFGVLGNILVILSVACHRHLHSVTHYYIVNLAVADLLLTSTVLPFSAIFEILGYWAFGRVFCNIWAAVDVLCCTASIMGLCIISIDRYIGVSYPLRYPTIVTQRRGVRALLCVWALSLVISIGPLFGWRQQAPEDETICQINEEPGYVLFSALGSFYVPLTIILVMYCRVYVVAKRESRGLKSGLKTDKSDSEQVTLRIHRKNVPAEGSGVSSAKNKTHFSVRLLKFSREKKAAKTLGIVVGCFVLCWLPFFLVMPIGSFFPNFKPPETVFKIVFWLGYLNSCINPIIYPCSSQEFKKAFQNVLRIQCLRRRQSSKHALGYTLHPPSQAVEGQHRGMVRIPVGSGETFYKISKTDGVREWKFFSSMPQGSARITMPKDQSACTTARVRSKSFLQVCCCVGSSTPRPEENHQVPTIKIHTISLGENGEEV

[5] = system: α1A-AR; conditions: α1A-AR knock-out mice, infusion; cited from earlier work
[6] = system: α1A receptors; conditions: cited from earlier work

Structure (SMILES)	effect on daily tail cuff blood pressure ([1]; 10 ng/kg/day over 7 days)	average blood pressure ([1]; 10 ng/kg/day over 7 days, osmotic minipump, tail cuff, vehicle control 115±4 mmHg)	effect on blood pressure at higher doses ([1]; doses higher than 10 ng/kg/day (range 0.01-100 μg/kg/day))	Fibrosis area (%) [2]	TUNEL-positive [2]	ECHO FS (%) [2]	Serum CK (U/L) [2]	Survival 7 days (%) [2]	benefit of A61603 against doxorubicin cardiomyopathy ([3]; data not shown)	EC50 for increase of mean arterial pressure [4]	increased mean arterial pressure (MAP) [4]	increased mean arterial pressure (MAP) over basal [4]	effect on mean arterial pressure [5]	potency at α1A receptors relative to α1B or α1D sites [6]	potency as α1A AR agonist compared with phenylephrine ([6]; versus non-selective α1 AR agonist phenylephrine)	apoptosis and mortality compared with wild-type mice ([3]; doxorubicin)
Br.CS(=O)(=O)Nc1c(O)ccc2c1CCCC2C1=NCCN1 (stereo not drawn) [A61603, N-[5-(4,5-Dihydro-1H-imidazol-2-yl)-2-hydroxy-5,6,7,8-tetrahydronaphthalen-1-yl]methanesulfonamide hydrobromide]	no effect	119±4 mmHg	increased blood pressure	25 ± 1%	0.5 ± 0.1	67 ± 1%	571 ± 67 U/L	100%	no beneficial result	0.3 µg/kg	35 mm Hg	25%	no effect	at least 35 fold	more potent	
COc1cccc2c1C(=O)c1c(O)c3c(c(O)c1C2=O)C[C@@](O)(C(=O)CO)C[C@@H]3O[C@H]1C[C@H](N)[C@H](O)[C@H](C)O1 [Doxorubicin, doxorubicin, reference compound]				32 ± 1%	1.3 ± 0.2	55 ± 3%	1204 ± 98 U/L	60%								increased apoptosis and mortality
